According to patent publication US20260315446A1, “ANTIFUNGAL COMPOUNDS AND USES THEREOF” (priority 2023, published 2026):
In brackets after ≈: the same amount, converted by molar mass. Entries after “also recorded” stand apart in the source; their conditions may differ. Like-named read-outs stand apart in the source and are kept apart here.

How the values were obtained:
C. neoformans = experiment: MIC assay (Example 4); type: cell-based, Cryptococcus neoformans; details: Cryptococcus neoformans
Protocol: Both JH-FK-10 and JH-FK-11 maintained in vitro antifungal activity against C. neoformans with MICs of 0.8 and 1.6 μg/mL, respectively (Table 11).
In vitro antifungal activity of FK506, FK520, and analogs was assessed in RPMI 1640 (Sigma-Aldrich) for all strains tested. Minimum inhibitory concentrations (MIC) for each drug were measured using modified Clinical and Laboratory Standards Institute (CLSI) M38-A2 and M27-A3 standard in vitro antifungal susceptibility protocols. Broth microdilution assays for MIC assessment were performed as previously described. All antifungal assays with C. neoformans were performed at 37° C.

fungi = details: listed as L-685,818; cited from earlier work
[1] = system: IL-2 expression in primary murine CD4+ T cells; experiment: In vitro immunosuppressive activity, IL-2 expression (Example 4); type: cell-based, mouse
Protocol: Spleen and lymph nodes were collected from C57BL/6 mice and homogenized through a 40 μm filter. Pan-CD4^+ T cells were enriched using MagniSort Mouse CD4 T cell Kit (eBioscience) according to the manufacturer's protocol. Thereafter, CD4+CD25−CD44lo CD62Lhi naïve T cells were FACS-sorted. The naïve CD4+ T cells were grown in Iscove's Modified Dulbecco's Medium (IMDM) supplemented with glutamine, penicillin, streptomycin, gentamicin, 2-mercaptoethanol, and 10% FBS. Cells were then cultured on anti-hamster IgG coated plates in the presence of hamster anti-CD3 epsilon and anti-CD28 antibodies (BD Biosciences), neutralizing anti-IL-4 antibody (eBioscience), recombinant IL-12 (10 ng/mL), and recombinant IL-2 (50 U/mL) for 72 h. During this period, cells were grown in the presence of 2× serially diluted FK506, FK520, or analog suspended in DMSO for 72 h. During the last 4 h of culture, phorbol 12-myristate 13-acetate (PMA; Sigma), ionomycin (Sigma), and GolgiStop (BD Biosciences) were added to the culture to facilitate detection of intracellular cytokines via flow cytometry.
Live cells were stained with FITC-conjugated anti-CD4 antibody (eBioscience) and Fixable Viability Dye eFluor 506 (eBioscience) on ice, followed by fixation and permeabilization using the Foxp3 Transcription Factor Staining Kit (eBioscience). Intracellular staining was performed at room temperature using PE-conjugated anti-IL-2 antibody (eBioscience), followed by analysis with a BD LSRFortessa X-20 flow cytometer.

immunosuppression = details: listed as L-685,818; cited from earlier work
C. neoformans strain H99 [2] = experiment: Murine cryptococcal infection, brain fungal burden (Example 3); type: in vivo, Cryptococcus neoformans in A/J mice; details: 14 days; fluconazole 6 mg/kg, JH-FK-08 40 mg/kg, i.p. twice per day
Protocol: (§1) In vivo antifungal activity and therapeutic benefit were assayed by investigating the impact of the FK520 analog on organ fungal burden during cryptococcosis. Specifically, the in vivo efficacy of JH-FK-08 on fungal burden was assessed using A/J female mice. Immunodeficient A/J mice were selected in part due to their defect in complement component five and their susceptibility to cryptococcal infection. Treatment groups included vehicle of 10% Kolliphor: ethanol (1:1) in phosphate-buffered saline (PBS), 6 mg/kg fluconazole, 40 mg/kg JH-FK-08, or the fluconazole and JH-FK-08 combination, all given via intraperitoneal (i.p.) injection twice per day beginning at 4 hours post infection. […] Mice were intranasally infected with C. neoformans strain H99, and fungal burden in the lung, spleen, and brain was assessed after 14 days of treatment.
(§2) C. neoformans inoculum was prepared by growing a 5-mL overnight YPD culture spinning in a tissue culture roller drum at 30° C. Cells were pelleted by centrifugation and washed in sterile PBS three times. Cell density was determined by hemocytometer, and cells were diluted to 2×10^6 cells/mL. Mice (10 to 20 g) were infected with 10^5 cells of C. neoformans H99. […] Following inhalation of the inoculum, animals were monitored for post anesthesia recovery. […] Fungal burden was assessed 24 h after the final dose. […]

C. neoformans H99 [3] = experiment: Intranasal model of pulmonary cryptococcosis, lung fungal burden (Example 1); type: in vivo, Cryptococcus neoformans in A/J mice; details: day 14; fluconazole 12 mg/kg i.p. daily
Protocol: First, in the intranasal model, animals were anesthetized and infected with 10^5 cells of wild-type H99 C. neoformans via instillation in the animal's nares. These animals were monitored for 14 days and then sacrificed. This model tests the efficacy of JH-FK-05 to treat a pulmonary infection, which is the most common manifestation of early-stage cryptococcosis in patients. […] In both models, animals were treated once daily via i.p. injection beginning 3 h after infection with either vehicle, 60 mg/kg JH-FK-05, 12 mg/kg fluconazole, or a combination of the two monotherapies.
Wild-type H99 C. neoformans cells were grown overnight at 30° C. in a roller drum in yeast extract-peptone-dextrose (YPD) medium. […] H99 cells were counted with a hemacytometer and diluted to 2×10^6 cells/mL in PBS for the pulmonary model and 2×10^5 cells/mL in PBS for the disseminated model.
Female A/J mice (3 to 4 weeks old; Jackson Laboratory) were anesthetized utilizing an isoflurane chamber. […] After 14 days, animals were either sacrificed for fungal burden analysis or monitored for health and survival until reaching a humane endpoint.
Mice were euthanized by CO2 inhalation at the predetermined experimental endpoint. […] A 100-μL aliquot of each dilution was plated on antibiotic plates (YPD, 50 μg/mL ampicillin, and 30 g/mL chloramphenicol), incubated for 48 to 72 h at 30° C., and assessed for CFU. […]

C. neoformans strain H99 [4] = experiment: Murine cryptococcal infection, spleen fungal burden (Example 3); type: in vivo, Cryptococcus neoformans in A/J mice; details: 14 days; fluconazole 6 mg/kg, JH-FK-08 40 mg/kg, i.p. twice per day
Protocol: as §1, §2

C. neoformans strain H99 [5] = experiment: Murine cryptococcal infection, lung fungal burden (Example 3); type: in vivo, Cryptococcus neoformans in A/J mice; details: JH-FK-08 40 mg/kg
Protocol: as §1, with “[…],” for “6 mg/kg fluconazole, 40 mg/kg JH-FK-08,”, “all given via intraperitoneal (i.p.) injection twice per day beginning at 4 hours post” left out
(§3) C. neoformans inoculum was prepared by growing a 5-mL overnight YPD culture spinning in a tissue culture roller drum at 30° C. Cells were pelleted by centrifugation and washed in sterile PBS three times. Cell density was determined by hemocytometer, and cells were diluted to 2×10^6 cells/mL. Mice (10 to 20 g) were infected with 10^5 cells of C. neoformans H99. For inhalation infection, animals were anesthetized with isoflurane before 50 μL of inoculum was pipetted onto the upright nasal passages of each animal. Following inhalation of the inoculum, animals were monitored for post anesthesia recovery. Treatment of animals began 4 hours post infection and was continued for 14 days. Fungal burden was assessed 24 h after the final dose.
For survival curve analysis, animals were monitored until reaching defined humane end points, including social isolation, hunched posture, weight loss, lack of grooming, and labored breathing, and were then euthanized via CO2 inhalation. […] One hundred microliters of each dilution was plated on YPD plates supplemented with YPD 50 μg/mL ampicillin and 30 μg/mL chloramphenicol, incubated at 30° C. for 2 days, and assessed for colony-forming units. CFU per organ weight was calculated and plotted using GraphPad Prism 9.

C. neoformans strain H99 [6] = experiment: Survival during cryptococcal infection (Example 3); type: in vivo, Cryptococcus neoformans in A/J mice; details: 2 weeks twice daily i.p.; fluconazole 6 mg/kg, JH-FK-08 40 mg/kg; vehicle 16 days
Protocol: Finally, whether the antifungal efficacy translates into extended survival during infection was assessed. To test the impact of treatment on survival, murine survival was monitored in the cryptococcosis infection model. Following the same protocol of infection and dosing as in the fungal burden experiment, animal survival was monitored following infection and 2 weeks of intraperitoneal dosing. Fluconazole treatment extended median survival from 16 to 27 days.
as §3
For survival curve analysis, animals were monitored until reaching defined humane end points, including social isolation, hunched posture, weight loss, lack of grooming, and labored breathing, and were then euthanized via CO2 inhalation. For fungal burden analysis, mice were euthanized following 2 weeks of treatment with a designated antifungal, vehicle, or combination. Brain, lung, and spleen were harvested from animals, weighed, and homogenized in sterile PBS using steel beads and a bead beater. Each organ homogenate was serially diluted 10-fold to 10-4 in PBS. One hundred microliters of each dilution was plated on YPD plates supplemented with YPD 50 μg/mL ampicillin and 30 μg/mL chloramphenicol, incubated at 30° C. for 2 days, and assessed for colony-forming units. CFU per organ weight was calculated and plotted using GraphPad Prism 9.

C. neoformans H99 [7] = experiment: Survival in intranasal cryptococcosis model (Example 1); type: in vivo, Cryptococcus neoformans in A/J mice; details: 14 days treatment; JH-FK-05 60 mg/kg, fluconazole 12 mg/kg, i.p. daily
Protocol: To verify if this reduction seen in the fungal burdens of JH-FK-05 and combination-treated animals could translate into a meaningful therapeutic effect, the survival of animals infected via the intranasal route was assessed (FIG. 8A). As in the fungal burden model, these animals received daily treatment for only 14 days. Following the termination of treatment, animals were monitored for signs of decline, lethargy, and ultimately, moribundity. Untreated animals in this model typically survive for about 3 weeks, and similar results were observed here (vehicle treatment median survival, 22 days). Corroborating the results of the fungal burden study, a significant extension of survival for both JH-FK-05 (median survival, 26 days) and fluconazole (median survival, 25 days) was observed.
Female A/J mice (3 to 4 weeks old; Jackson Laboratory) were anesthetized utilizing an isoflurane chamber. While anesthetized, […] of 2×10^6 cells/mL suspension was dripped onto the nares of mice, allowing them to inhale the full inoculum. Treatment began 3 h following infection with i.p. dosing of vehicle, 60 mg/kg JH-FK-05, 12 mg/kg fluconazole, or combination. […] After 14 days, animals were either sacrificed for fungal burden analysis or monitored for health and survival until reaching a humane endpoint. […] Statistical significance was determined using log-rank (Mantel-Cox) tests.

| SMILES | MIC (C. neoformans; 37° C., Table 13, read-out: C. neoformans MIC) [µg/mL] | MIC (C. neoformans; read-out: C. neoformans MIC, 37° C., Table 11) [µg/mL] | MIC (C. neoformans; read-out: C. neoformans MIC, 37° C., Table 12) [µg/mL] | antifungal activity (fungi) | immunosuppressive activity [1] | IC50 ([1]; Mus musculus, CD4+ T, Table 12) [nM] | immunosuppression (immunosuppression) | brain fungal burden (C. neoformans strain H99 [2]) | lung fungal burden (C. neoformans H99 [3]) | spleen fungal burden (C. neoformans strain H99 [4]) | reduction of lung fungal burden (C. neoformans strain H99 [5]; 14 days, fluconazole 6 mg/kg, i.p. twice per day) | lung fungal burden reduction (C. neoformans strain H99 [5]; once daily, fluconazole 12 mg/kg) | median survival (C. neoformans strain H99 [6]) [days] | median survival (C. neoformans H99 [7]) [days] |
| --- | --- | --- | --- | --- | --- | --- | --- | --- | --- | --- | --- | --- | --- | --- |
| CC[C@@H]1/C=C(\C)C(O)[C@H](C)C[C@H](OC)[C@H]2O[C@@](O)(C(=O)C(=O)N3CCCC[C@H]3C(=O)O[C@H](/C(C)=C/[C@@H]3CC[C@@H](O)[C@H](OC)C3)[C@H](C)[C@@H](O)CC1=O)[C@H](C)C[C@@H]2OC (single isomer, unassigned) [JH-FK-11] | 1.6 (≈ 1.98 µM) | 3.2 (≈ 3.96 µM) | 1.6 (≈ 1.98 µM) | robust antifungal activity; also recorded: broad-spectrum antifungal activity | detectable immunosuppressive activities; also recorded: significantly reduced for immunosuppressive activity compared to its FK506 counterpart JH-FK-10 | 41.4 | non-immunosuppressive; also recorded: reduced for immunosuppression in vitro |  |  |  |  |  |  |  |
| OC(Cn1cncn1)(Cn1cncn1)c1ccc(F)cc1F [fluconazole, reference compound] |  |  |  |  |  |  |  | no detectable fungal burden | did not reduce the fungal burden | no detectable fungal burden | ~ 6 fold | limited efficacy in reducing lung fungal burden | 27 | 25 |
